We go through 13 compounds from patent EP3784230B1, “THE USE OF TERPENIC COUMARINE DERIVATIVE MOLECULES IN THE TREATMENT OF CANCER DISEASE” (T.C. Istanbul Medipol Universitesi, priority 2018, dated 2019).

One assay concerns COLO205. As to the kind of experiment: Cytotoxic activity (IC50) on cancer cell line COLO205. Type of assay: cell-based. To be noted: Homo sapiens, COLO 205, read-out: Cytotoxic Activity ( IC 50 ). An excerpt:
(§1) The inventors have determined the cytotoxic activity (IC 50 values) of the compounds according to the invention together with various agents present in the prior art on cell lines of different types of cancer.

The subject of the next assay is KM12. The assay can be described thus: Cytotoxic activity (IC50) on cancer cell line KM12. Type of assay: cell-based. To be noted: Homo sapiens, read-out: Cytotoxic Activity ( IC 50 ).
Excerpt: as §1

In another assay the test system is TC32. The assay can be described thus: Cytotoxic activity (IC50) on cancer cell line TC32. The settings on record: Homo sapiens, TC-32, read-out: Cytotoxic Activity ( IC 50 ). In kind it is cell-based.
Excerpt: as §1

For a further assay, the system named is A673. The assay can be described thus: Cytotoxic activity (IC50) on cancer cell line A673. Type of assay: cell-based. The settings on record: Homo sapiens, read-out: Cytotoxic Activity ( IC 50 ).
Excerpt: as §1

A further assay relates to A498. The assay can be described thus: Cytotoxic activity (IC50) on cancer cell line A498. Type of assay: cell-based. To be noted: Homo sapiens, read-out: Cytotoxic Activity ( IC 50 ).
Excerpt: as §1

The test system of assay [1] is UO31 cell line. As to the kind of experiment: Cytotoxic activity (IC50) on kidney cancer cell line UO31. Type of assay: cell-based. To be noted: Homo sapiens, UO-31; U031 (kidney cancer cell line); read-out: Cytotoxic Activity ( IC 50 ).
Excerpt: as §1
The UO31 cell line is known to be the kidney cancer cell line. Taxol, vinblastine and vincristine anti-cancer agents are used against the kidney cancer in the state of the art.

For assay [2], the system named is UO31 cell line. To be noted: Ferguson R.E. et al., Int. J. Cancer 2005, 115, 155-163, read-out: IC 50 value; cited from earlier work.

Read-outs that look alike come from different tables or passages of the source.

For `C/C(=C\COc1ccc2ccc(=O)oc2c1)CC/C=C(\C)CCC(O)C(C)(C)O` (stereo not drawn) [REFERENCE MOLECULE II], the IC50 is above 50 µM with COLO205; above 50 µM in the assay with KM12; above 50 µM with TC32; above 50 µM in the assay on A673; above 50 µM in the assay with A498; 7.6 µM in the assay on UO31 cell line [1].

For `C=C1CC[C@@H]2[C@](C)(CO)[C@H](O)CC[C@@]2(C)[C@@H]1COc1ccc2ccc(=O)oc2c1` [REFERENCE MOLECULE V], the IC50 in the assay with COLO205, in the assay on KM12, in the assay on TC32, in the assay with A673, in the assay on A498 and in the assay with UO31 cell line [1] was above 50 µM throughout.

Turning to `C=C1CC[C@@H]2C(C)(C)[C@H](O)CC[C@@]2(C)[C@@H]1COc1ccc2ccc(=O)oc2c1` [EXAMPLE MOLECULE I], the IC50 with COLO205 was 19 µM; in the assay on KM12, 2.5 µM; with TC32 it was 45 µM; in the assay on A673, above 50 µM; in the assay on A498, 21 µM; with UO31 cell line [1] it was 0.75 µM.

Turning to `CC(C)=CCC/C(C)=C/CC/C(C)=C/COc1ccc2ccc(=O)oc2c1` [REFERENCE MOLECULE I], the IC50 in the assay with COLO205 is above 50 µM; in the assay on KM12 it was above 50 µM; with TC32, above 50 µM; with A673 it was above 50 µM; in the assay with A498, above 50 µM; in the assay with UO31 cell line [1], 1.8 µM.

`C=C1CC[C@@H]2C(C)(C)C(=O)CC[C@@]2(C)[C@@H]1COc1ccc2ccc(=O)oc2c1` [REFERENCE MOLECULE III]: the IC50 was above 50 µM in the assay with COLO205; above 50 µM in the assay on KM12; above 50 µM with TC32; above 50 µM in the assay with A673; above 50 µM in the assay on A498; 11 µM in the assay with UO31 cell line [1].

Consider `C=C1CC[C@@H]2[C@](C)(COC(C)=O)[C@@H](O)CC[C@@]2(C)[C@@H]1COc1ccc2ccc(=O)oc2c1` [EXAMPLE MOLECULE III], for which the IC50 in the assay with COLO205 was above 50 µM; in the assay on KM12, above 50 µM; with TC32 it was above 50 µM; in the assay on A673, above 50 µM; with A498, above 50 µM; with UO31 cell line [1], 0.017 µM.

On to `C=C1CC[C@@H]2[C@](C)(COC(C)=O)[C@H](O)CC[C@@]2(C)[C@@H]1COc1ccc2ccc(=O)oc2c1` [EXAMPLE MOLECULE IV], for which the IC50 in the assay on COLO205 is above 50 µM; in the assay on KM12, above 50 µM; in the assay on TC32, above 50 µM; with A673, above 50 µM; with A498 it was above 50 µM; in the assay on UO31 cell line [1], 0.37 µM.

`C=C1CC[C@@H]2[C@](C)(C=O)[C@@H](O)CC[C@@]2(C)[C@@H]1COc1ccc2ccc(=O)oc2c1` [EXAMPLE MOLECULE V]: the IC50 with COLO205 was above 50 µM; with KM12 it was above 50 µM; in the assay with TC32, above 50 µM; in the assay on A673, above 50 µM; in the assay on A498, above 50 µM; in the assay on UO31 cell line [1] it was 0.024 µM.

Consider `CC[C@]1(O)C[C@@H]2CN(CCc3c([nH]c4ccccc34)[C@@](C(=O)OC)(c3cc4c(cc3OC)N(C)[C@H]3[C@@](O)(C(=O)OC)[C@H](OC(C)=O)[C@]5(CC)C=CCN6CC[C@]43[C@@H]65)C2)C1` [vinblastine], for which, in the assay on UO31 cell line [2], the IC50 is above 100 µM.

On to `CC(=O)O[C@H]1C(=O)[C@@]2(C)[C@H]([C@H](OC(=O)c3ccccc3)[C@]3(O)C[C@H](OC(=O)[C@H](O)[C@@H](NC(=O)c4ccccc4)c4ccccc4)C(C)=C1C3(C)C)[C@]1(OC(C)=O)CO[C@@H]1C[C@@H]2O` [taxol], for which the IC50 with UO31 cell line [2] was above 50 µM.

With `CC[C@]1(O)C[C@H]2CN(CCc3c([nH]c4ccccc34)[C@@](C(=O)OC)(c3cc4c(cc3OC)N(C=O)[C@H]3[C@@](O)(C(=O)OC)[C@H](OC(C)=O)[C@]5(CC)C=CCN6CC[C@]43[C@@H]65)C2)C1` [vincristine], the IC50 with UO31 cell line [2] is above 100 µM.

Regarding `C=C1CC[C@H]2[C@@](C)(CCC(=O)[C@@]2(C)COC(C)=O)[C@@H]1COc1ccc2ccc(=O)oc2c1` [REFERENCE MOLECULE IV], the IC50 in the assay with COLO205, in the assay on KM12, with TC32, with A673, in the assay on A498 and in the assay on UO31 cell line [1] was above 50 µM each time.

Consider `C=C1CC[C@@H]2C(C)(C)[C@@H](O)CC[C@@]2(C)[C@@H]1COc1ccc2ccc(=O)oc2c1` [EXAMPLE MOLECULE II], for which the IC50 with COLO205 is above 50 µM; in the assay on KM12, 9.1 µM; in the assay on TC32, above 50 µM; in the assay with A673 it was above 50 µM; in the assay on A498, 20 µM; in the assay with UO31 cell line [1], 0.38 µM.
